# Measured values reported in PubChem BioAssay (NCI).
#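 Step 1: Grow cells in 96-well plates. Step 2: Expose to compound for 48 hours at 5 concentrations. Step 3: Interpolate endpoints linearly; if unreached, use highest concentration. GI50 marks 50% less growth. At the TGI there is no net growth.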
# Legend:
# Test in all cases: NCI anticancer screen, dose series, 48 h
# SK-MEL-5 melanoma = tested on: SK-MEL-5 melanoma
# KM12 colon = tested on: KM12 colon
# NCI-H522 lung = tested on: NCI-H522 lung
# UACC-62 melanoma = tested on: UACC-62 melanoma
# DU-145 prostate = tested on: DU-145 prostate
# HCT-15 colon = tested on: HCT-15 colon
# MDA-MB-231 breast = tested on: MDA-MB-231 breast
# SNB-19 CNS = tested on: SNB-19 CNS
# NCI-H226 lung = tested on: NCI-H226 lung
# SF-295 CNS = tested on: SF-295 CNS
Compound,TGI (SK-MEL-5 melanoma) [µM],TGI (KM12 colon) [µM],TGI (NCI-H522 lung) [µM],TGI (UACC-62 melanoma) [µM],TGI (DU-145 prostate) [µM],TGI (HCT-15 colon) [µM],TGI (MDA-MB-231 breast) [µM],TGI (SNB-19 CNS) [µM],TGI (NCI-H226 lung) [µM],TGI (SF-295 CNS) [µM],GI50 (SK-MEL-5 melanoma) [µM],GI50 (KM12 colon) [µM],GI50 (NCI-H522 lung) [µM],GI50 (UACC-62 melanoma) [µM],GI50 (DU-145 prostate) [µM],GI50 (HCT-15 colon) [µM],GI50 (MDA-MB-231 breast) [µM],GI50 (SNB-19 CNS) [µM],GI50 (NCI-H226 lung) [µM],GI50 (SF-295 CNS) [µM]
NC(=O)NCCSC1CCCCC1O (configuration not stated),> 100,> 100,> 100,> 100,> 100,> 100,> 100,> 100,> 100,> 100,,,,,,,,,,
COc1ccc(/C=C\c2cc(OC)c(OC)c(OC)c2)cc1OCC(=O)Nc1nc2ccc(OC(F)(F)F)cc2s1,22.9,51.5,21.7,> 100,> 100,> 100,> 100,> 100,62.2,> 100,3.26,4.48,3.16,5.11,4.11,3.23,5.16,7.08,4.3,3.7
COc1ccc(-n2c(C)nc3c(c(C)nn3-c3ccccc3)c2=O)cc1,4.6,> 100,9.1,> 100,> 100,> 100,> 100,> 100,> 100,> 100,0.0615,0.0532,0.0375,0.0426,0.29,0.0483,0.311,0.064,0.207,0.0594
CC1(C)Cc2c(Br)c(Br)c(Br)c(OCC(O)CN3CCOCC3)c2O1 (configuration not stated),22,28.9,26.7,27.5,26.2,26.8,22.5,26.4,34.9,20.3,10.2,13.4,12.4,13.8,13.4,13.7,10.1,13.4,15.2,5.17
COc1ccc(-n2c3c(c4c(CN(C)C)c(O)c(C)cc42)CCc2ccccc2C3=O)cc1,68.8,63.9,50.7,> 100,> 100,> 100,90.1,> 100,> 100,> 100,21.5,21.1,13.4,30.6,21.4,28.7,25,> 100,28.3,35.6
COc1ccc(-c2ccccc2)cc1-c1c(Nc2cc(Cl)cc(Cl)c2O)c(=O)c1=O,2.25,> 50,> 50,> 50,> 50,> 50,3.17,> 50,> 50,3.69,0.97,1.53,1.41,1.29,1.7,1.5,1.2,1.84,1.57,1.26
COc1ccc2c(c1)C(=O)c1c-2n(CCCN2CCOCC2)c(=O)c2cc([N+](=O)[O-])ccc12,< 0.01,0.544,,0.0291,0.0106,13.3,17.3,> 36.5,0.405,,< 0.01,< 0.01,< 0.01,< 0.01,< 0.01,< 0.0151,0.661,< 0.01,< 0.01,< 0.01
COc1cc2c(cc1OC)-c1c(c3ccc([N+](=O)[O-])cc3c(=O)n1CCCN)C2=O,8.47,4.92,4.22,10.8,1.37,3.66,1.54,5.9,12.1,10.5,2.5,2.1,0.0615,1.95,0.684,1.3,0.521,0.944,3.61,0.0566
Cc1ccc(C[P+](c2ccccc2)(c2ccccc2)c2ccccc2)cc1,1.27,4.5,,14.1,43.4,> 73.1,29.3,> 39.5,> 25.8,8.11,0.321,0.438,0.75,0.907,1.38,11.7,2.54,2.18,1.73,0.99
COc1ccc(C(=O)CC(c2ccc(OC)c(OC)c2)c2c(O)c3ccccc3oc2=O)cc1OC (configuration not stated),> 100,> 100,> 100,> 100,> 100,> 100,> 100,> 100,> 100,> 100,,,,,,,,,,
NC1=NC(c2ccc(F)cc2)C2=C(N1)c1ccc3ccccc3c1OCC2 (configuration not stated),> 100,> 100,> 100,30.9,> 100,> 100,> 100,> 100,57.4,48.4,5.01,4.45,> 100,3.14,> 100,3.25,47.4,16.2,9.57,3.47
Cc1cc(N=C2C=C(Nc3cc(C)on3)C(=O)c3ccccc32)no1,15.9,> 100,> 100,38.4,> 100,> 100,28.7,> 100,> 100,> 100,,,,,,,,,,
CN1CCC(n2[nH]c(-c3ccccc3)c(Cc3ccccc3)c2=O)CC1,> 100,> 100,> 100,> 100,> 100,> 100,> 100,> 100,> 100,> 100,,,,,,,,,,
